Test results taken from US11524968B2, “Heterocyclic compound as a protein kinase inhibitor” (HK inno.N Corporation, priority 2017, dated 2022).

Molecular target: JAK1 (Homo sapiens (Human), UniProt P23458)
Test: Analysis of JAK1 activity inhibition ability (ADP-Glo Kinase Assay)
Format: biochemical
Settings: JAK1 enzyme, ADP-Glo luminescence, ATP 250 uM, IRS-itide substrate, 30° C. 40 minutes; read-out: IC50
How it was run: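 ADP-Glo luminescence read-out of ADP production, with IC50 taken as the concentration halving JAK1 activity relative to control. Enzyme was incubated 40 min at 30 °C with compound, IRS-itide (40 ng/mL) and ATP (250 uM), concentrations as prepared in pH 7.5 Tris-HCl/MgCl2/BSA/DTT buffer.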

JAK1, sequence (P23458 whole entry): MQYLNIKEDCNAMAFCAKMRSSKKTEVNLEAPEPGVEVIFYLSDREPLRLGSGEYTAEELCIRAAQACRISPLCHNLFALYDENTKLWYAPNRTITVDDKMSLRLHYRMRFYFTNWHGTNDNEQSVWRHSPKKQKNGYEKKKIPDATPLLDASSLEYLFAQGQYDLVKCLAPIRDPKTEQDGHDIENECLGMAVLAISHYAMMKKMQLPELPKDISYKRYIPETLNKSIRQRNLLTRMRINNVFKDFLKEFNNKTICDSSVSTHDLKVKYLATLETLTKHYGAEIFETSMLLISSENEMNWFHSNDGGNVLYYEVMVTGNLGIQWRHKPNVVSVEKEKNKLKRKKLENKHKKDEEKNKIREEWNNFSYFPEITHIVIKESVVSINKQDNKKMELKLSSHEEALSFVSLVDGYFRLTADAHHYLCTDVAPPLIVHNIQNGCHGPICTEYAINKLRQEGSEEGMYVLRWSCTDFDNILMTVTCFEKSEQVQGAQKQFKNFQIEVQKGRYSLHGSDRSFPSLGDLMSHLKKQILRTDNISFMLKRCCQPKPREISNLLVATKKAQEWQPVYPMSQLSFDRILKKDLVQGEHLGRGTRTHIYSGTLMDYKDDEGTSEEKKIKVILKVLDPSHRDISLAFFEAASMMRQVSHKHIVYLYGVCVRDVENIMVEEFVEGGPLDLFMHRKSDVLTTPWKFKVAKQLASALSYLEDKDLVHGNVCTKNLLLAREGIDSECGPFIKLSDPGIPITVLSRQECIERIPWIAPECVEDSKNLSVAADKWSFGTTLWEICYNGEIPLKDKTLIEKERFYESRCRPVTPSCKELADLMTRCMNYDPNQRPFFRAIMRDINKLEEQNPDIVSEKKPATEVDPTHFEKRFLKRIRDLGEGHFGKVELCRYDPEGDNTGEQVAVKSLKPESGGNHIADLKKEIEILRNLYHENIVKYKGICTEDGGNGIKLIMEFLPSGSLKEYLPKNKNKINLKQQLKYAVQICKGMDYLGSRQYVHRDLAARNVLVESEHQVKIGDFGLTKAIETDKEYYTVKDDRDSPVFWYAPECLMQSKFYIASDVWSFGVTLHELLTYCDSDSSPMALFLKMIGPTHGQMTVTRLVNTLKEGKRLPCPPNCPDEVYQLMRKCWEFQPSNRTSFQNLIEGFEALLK

CCS(=O)(=O)Nc1ccc(-c2cc(NC(=O)C3CC3)[n+]([O-])c3[nH]ccc23)c(C)c1 [Example 134, 6-(cyclopropanecarboxamido)-4-(4-(ethylsulfonamido)-2-methylphenyl)-1H-pyrrolo[2,3-b]pyridine 7-oxide]
IC50: 0.02 to 0.2 µM

N#CCC(=O)N1CC=C(c2cc(NC(=O)C3CC3)nc3[nH]ccc23)C1 [Example 426, N-(4-(1-(2-cyanoacetyl)-2,5-dihydro-1H-pyrrol-3-yl)-1H-pyrrolo[2,3-b]pyridin-6-yl)cyclopropanecarboxamide]
IC50: > 0.2 µM

O=C(Nc1cc(-c2ccc(NS(=O)(=O)c3ccc(-n4cnnn4)cc3)cc2)c2cc[nH]c2n1)C1CC1 [Example 39, N-(4-(4-((4-(1H-tetrazol-1-yl)phenyl)sulfonamido)phenyl)-1H-pyrrolo[2,3-b]pyridin-6-yl)cyclopropanecarboxamide]
IC50: 0.02 to 0.2 µM

Cc1nnnn1Cc1ccc(-c2cc(NC(=O)C3CC3)nc3[nH]cnc23)cc1 [Example 594, N-(7-(4-((5-methyl-1H-tetrazol-1-yl)methyl)phenyl)-3H-imidazo[4,5-b]pyridin-5-yl)cyclopropanecarboxamide]
IC50: > 0.2 µM

CC(C)C1CC(c2cc(NC(=O)C3CC3)nc3[nH]ccc23)=CCN1C(=O)CC#N (centres unmarked) [Example 410, N-(4-(1-(2-cyanoacetyl)-2-isopropyl-1,2,3,6-tetrahydropyridin-4-yl)-1H-pyrrolo[2,3-b]pyridin-6-yl)cyclopropanecarboxamide]
IC50: < 0.02 µM

O=C(Nc1cc(-c2cnn(CC3CC3)c2)c2cc[nH]c2n1)C1CC1 [Example 478, N-(4-(1-(cyclopropylmethyl)-1H-pyrazol-4-yl)-1H-pyrrolo[2,3-b]pyridin-6-yl)cyclopropanecarboxamide]
IC50: < 0.02 µM

CCc1cc(NS(=O)(=O)CC2(C#N)CC2)ccc1-c1cc(NC(=O)C2CC2)[n+]([O-])c2[nH]ccc12 [Example 137, 4-(4-(((1-cyanocyclopropyl)methyl)sulfonamido)-2-ethylphenyl)-6-(cyclopropanecarboxamido)-1H-pyrrolo[2,3-b]pyridine 7-oxide]
IC50: < 0.02 µM

CCS(=O)(=O)Nc1ccc(-c2nc(NC(=O)C3CC3)nc3[nH]cnc23)cc1 [Example 209, N-(6-(4-(ethylsulfonamido)phenyl)-9H-purin-2-yl)cyclopropanecarboxamide]
IC50: > 0.2 µM

CS(=O)(=O)N1CCN(S(=O)(=O)Nc2ccc(-c3cc(NC(=O)C4CC4)nc4[nH]ccc34)cc2)CC1 [Example 230, N-(4-(4-((4-(methylsulfonyl)piperazine)-1-sulfonamido)phenyl)-1H-pyrrolo[2,3-b]pyridin-6-yl)cyclopropanecarboxamide]
IC50: < 0.02 µM

O=C(Nc1cc(-c2ccc(OCc3ccc(F)cc3)cc2)c2cc[nH]c2n1)C1CC1 [Example 641, N-(4-(4-((4-fluorobenzyl)oxy)phenyl)-1H-pyrrolo[2,3-b]pyridin-6-yl)cyclopropanecarboxamide]
IC50: > 0.2 µM

O=C(Nc1cc(C2=CC3CCC(C2)N3C(=O)CC(F)(F)F)c2cc[nH]c2n1)C1CC1 (centres unmarked) [Example 261, N-(4-(8-(3,3,3-trifluoropropanoyl)-8-azabicyclo[3.2.1]oct-2-en-3-yl)-1H-pyrrolo[2,3-b]pyridin-6-yl)cyclopropanecarboxamide]
IC50: 0.02 to 0.2 µM

CC1CN(C(=O)c2ccnc(Br)c2)CC=C1c1cc(NC(=O)C2CC2)nc2[nH]ccc12 (centres unmarked) [Example 382, N-(4-(1-(2-bromoisonicotinoyl)-3-methyl-1,2,3,6-tetrahydropyridin-4-yl)-1H-pyrrolo[2,3-b]pyridin-6-yl)cyclopropanecarboxamide]
IC50: 0.02 to 0.2 µM

O=C(Nc1cc(C2=CCC(NS(=O)(=O)CC3CC3)CC2)c2cc[nH]c2n1)C1CC1 (centres unmarked) [Example 161, N-(4-(4-((cyclopropylmethyl)sulfonamido)cyclohex-1-en-1-yl)-1H-pyrrolo[2,3-b]pyridin-6-yl)cyclopropanecarboxamide]
IC50: < 0.02 µM

CCCC(=O)Nc1cc(-c2ccc(NS(=O)(=O)CC)c(F)c2)c2cc[nH]c2n1 [Example 712, N-(4-(4-(ethylsulfonamido)-3-fluorophenyl)-1H-pyrrolo[2,3-b]pyridin-6-yl)butyramide]
IC50: > 0.2 µM
